Key:
[1] = Inhibition of HCV NS5B J4 delta 21 polymerase; parameters: species or system Hepacivirus hominis
[2] = Permeability across artificial membrane by PAMPA assay; type: ADME; conditions: read-out: permeability
[3] = Inhibition of HCV NS5B RB01 polymerase; parameters: species or system Hepacivirus hominis
[4] = tested on: Hepatitis C virus; test: Inhibition of HCV replicon by cell based assay; type: functional, organism-based, Hepacivirus hominis
[5] = tested on: Hepacivirus hominis; test: Inhibition of HCV NS5B J4 delta 21 polymerase at 10 uM

Row | IC50 [1] | IC50 [3] | SMILES | other results
1 | > 20 µM | – | CC(C)C[C@@]1(C(=O)Nc2ccccc2)C[C@H](C(=O)O)[C@H](c2cccs2)N1C(=O)c1ccc(C(F)(F)F)cc1 | –
2 | 0.04 µM | – | CC(C)C[C@@]1(C(=O)O)C[C@H](C(=O)NS(C)(=O)=O)[C@H](c2nccs2)N1C(=O)c1ccc(C(C)(C)C)cc1 | Papp [2]: < 0.03 ×10⁻⁶ cm/s
3 | > 20 µM | – | CC(C)C[C@@]1(C(=O)NCc2ccccc2)C[C@H](C(=O)O)[C@H](c2cccs2)N1C(=O)c1ccc(C(F)(F)F)cc1 | –
4 | 2.5 µM | – | CC(C)C[C@@]1(C(=O)O)C[C@H](C(N)=O)[C@H](c2nccs2)N1C(=O)c1ccc(C(C)(C)C)cc1 (stereo in doubt; (-)32) | –
5 | – | 20 µM | CC(C)C[C@@]1(C(=O)O)C[C@H](C(=O)O)[C@H](c2cccs2)N1C(=O)c1ccc(C(F)(F)F)cc1 (stereo in doubt; 1) | –
6 | > 20 µM | – | CCNC(=O)[C@]1(CC(C)C)C[C@H](C(=O)O)[C@H](c2cccs2)N1C(=O)c1ccc(C(F)(F)F)cc1 | –
7 | 0.55 µM | 4.23 µM | CC(C)C[C@@]1(C(=O)O)C[C@H](C(=O)NS(=O)(=O)Cc2ccccc2)[C@H](c2nccs2)N1C(=O)c1ccc(C(C)(C)C)cc1 | –
8 | 0.75 µM | – | CC(C)C[C@@]1(C(=O)O)C[C@H](C(=O)O)[C@H](c2cccs2)N1C(=O)c1ccc(C(C)(C)C)cc1 | –
9 | 2.36 µM | – | CC(C)C[C@@]1(C(=O)O)C[C@H](C(=O)O)[C@H](c2nccs2)N1C(=O)c1ccc(C(C)(C)C)cc1 (stereo in doubt; (-)28) | –
10 | 0.03 µM | 2.1 µM | CC(C)C[C@@]1(C(=O)O)C[C@H](C(=O)O)[C@H](c2nccs2)N1C(=O)c1ccc(C(C)(C)C)cc1 (stereo in doubt; (+)28) | –
11 | > 20 µM | – | COC(=O)[C@H]1C[C@@](CC(C)C)(C(=O)OC)N(C(=O)c2ccc(C(F)(F)F)cc2)[C@H]1c1cccs1 | –
12 | 0.33 µM | – | CC(C)C[C@@]1(C(=O)O)C[C@H](C(N)=O)[C@H](c2cccs2)N1C(=O)c1ccc(C(C)(C)C)cc1 | –
13 | 4.4 µM | – | CC(C)C[C@@]1(C(=O)O)C[C@H](C(N)=O)[C@H](c2cccs2)N1C(=O)c1ccc(C(F)(F)F)cc1 (stereo in doubt; 19) | –
14 | 2.23 µM | – | CC(C)C[C@@]1(C(=O)O)C[C@H](C(N)=O)[C@H](c2cccs2)N1C(=O)c1ccc(C(F)(F)F)cc1 (stereo in doubt; (+)29) | –
15 | > 20 µM | – | COC(=O)[C@H]1C[C@@](CC(C)C)(C(=O)O)N(C(=O)c2ccc(C(F)(F)F)cc2)[C@H]1c1cccs1 | –
16 | 0.5 µM | 3.15 µM | CC(C)C[C@@]1(C(=O)O)C[C@H](C(=O)NS(=O)(=O)c2ccccc2)[C@H](c2nccs2)N1C(=O)c1ccc(C(C)(C)C)cc1 | –
17 | > 20 µM | – | COC(=O)[C@]1(CC(C)C)C[C@H](C(=O)O)[C@H](c2cccs2)N1C(=O)c1ccc(C(F)(F)F)cc1 | –
18 | – | – | CC(C)C[C@@]1(C(=O)O)C[C@H](CO)[C@H](c2cccs2)N1C(=O)c1ccc(C(F)(F)F)cc1 | inhibition [5]: 51%

Row | IC50 [1] | IC50 [3] | SMILES | other results
19 | 8.29 µM | 68 µM | CC(C)C[C@@]1(C(=O)O)C[C@H](C(=O)NCc2ccccc2)[C@H](c2nccs2)N1C(=O)c1ccc(C(C)(C)C)cc1 | –
20 | 0.07 µM | 3.8 µM | CC(C)C[C@@]1(C(=O)O)C[C@H](C(N)=O)[C@H](c2nccs2)N1C(=O)c1ccc(C(C)(C)C)cc1 (stereo in doubt; (+)32) | –
21 | 2.05 µM | – | CC(C)C[C@@]1(C(=O)O)C[C@H](C(N)=O)[C@H](c2nccs2)N1C(=O)c1ccc(C(F)(F)F)cc1 | –
22 | – | – | CC(C)C[C@@]1(CO)C[C@H](C(=O)O)[C@H](c2cccs2)N1C(=O)c1ccc(C(F)(F)F)cc1 | inhibition [5]: 0%
23 | 0.45 µM | – | CC(C)C[C@@]1(C(=O)O)C[C@H](C(=O)O)[C@H](c2nccs2)N1C(=O)c1ccc(C(F)(F)F)cc1 | –
24 | 0.3 µM | 11.9 µM | CC(C)C[C@@]1(C(=O)O)C[C@H](C(=O)O)[C@H](c2cccs2)N1C(=O)c1ccc(C(F)(F)F)cc1 (stereo in doubt; (+)-1) | –
25 | 0.41 µM | – | CC(C)C[C@@]1(C(=O)O)C[C@H](C(=O)NS(C)(=O)=O)[C@H](c2nccs2)N1C(=O)c1ccc(C(F)(F)F)cc1 | –
26 | 0.2 µM | – | CC(C)C[C@@]1(C(=O)O)C[C@H](C(=O)NS(=O)(=O)C(F)(F)F)[C@H](c2cccs2)N1C(=O)c1ccc(C(F)(F)F)cc1 | –
27 | 8.1 µM | – | CC(C)C[C@@]1(C(N)=O)C[C@H](C(=O)O)[C@H](c2cccs2)N1C(=O)c1ccc(C(F)(F)F)cc1 | –
28 | 0.23 µM | – | CC(C)C[C@@]1(C(=O)O)C[C@H](C(=O)NS(C)(=O)=O)[C@H](c2cccs2)N1C(=O)c1ccc(C(F)(F)F)cc1 | –
29 | > 20 µM | – | CNC(=O)[C@]1(CC(C)C)C[C@H](C(=O)O)[C@H](c2cccs2)N1C(=O)c1ccc(C(F)(F)F)cc1 | –
30 | 18 µM | – | CC(C)C[C@@]1(C(=O)O)C[C@H](C(=O)O)[C@H](c2cccs2)N1C(=O)c1ccc(C(F)(F)F)cc1 (stereo in doubt; (-)1) | –
31 | 0.08 µM | 4.4 µM | CC(C)C[C@@]1(C(=O)O)C[C@H](C(N)=O)[C@H](c2nccs2)N1C(=O)c1ccc(C(C)(C)C)cc1 (stereo in doubt; 32) | –
32 | – | 22 µM | CNC(=O)[C@H]1C[C@@](CC(C)C)(C(=O)O)N(C(=O)c2ccc(C(C)(C)C)cc2)[C@H]1c1nccs1 | –
33 | 0.07 µM | 3.8 µM | CC(C)C[C@@]1(C(=O)O)C[C@H](C(=O)O)[C@H](c2nccs2)N1C(=O)c1ccc(C(C)(C)C)cc1 (stereo in doubt; 28) | –
34 | > 20 µM | – | CC(C)C[C@@]1(C(=O)NC(C)C)C[C@H](C(=O)O)[C@H](c2cccs2)N1C(=O)c1ccc(C(F)(F)F)cc1 | –
35 | > 20 µM | – | CC(C)C[C@@]1(C(=O)OCc2ccccc2)C[C@H](C(=O)O)[C@H](c2cccs2)N1C(=O)c1ccc(C(F)(F)F)cc1 | –
36 | > 30 µM | – | CC(C)C[C@@]1(C(=O)O)C[C@H](C(N)=O)[C@H](c2cccs2)N1C(=O)c1ccc(C(F)(F)F)cc1 (stereo in doubt; (-)29) | –

Row | SMILES | IC50 [1] | IC50 [3] | other results
37 | CC(C)C[C@@]1(C(=O)O)C[C@H](C(=O)Nc2ccccc2)[C@H](c2nccs2)N1C(=O)c1ccc(C(C)(C)C)cc1 (stereo in doubt; 41) | 0.16 µM | 3.1 µM | IC50 ([4]; Hepatitis C virus): 45 µM
38 | CC(C)C[C@@]1(C(=O)O)C[C@H](C(=O)Nc2ccccc2)[C@H](c2nccs2)N1C(=O)c1ccc(C(C)(C)C)cc1 (stereo in doubt; (+)41) | – | 0.5 µM | IC50 [4]: 30 µM
39 | CC(C)C[C@@]1(C(=O)O)C[C@H](C(=O)Nc2ccccc2)[C@H](c2nccs2)N1C(=O)c1ccc(C(C)(C)C)cc1 (stereo in doubt; (-)41) | – | > 100 µM | CC50 ([4]; Hepatitis C virus): > 200 µM
